Patent US20220380374A1, “1,4-DIHYDROBENZO[D]PYRAZOLO[3,4-F][1,3]DIAZEPINE DERIVATIVES AND RELATED COMPOUNDS AS LRRK2, NUAK1 AND/OR TYK2 KINASE MODULATORS FOR THE TREATMENT OF E.G. AUTOIMMUNE DISEASE” (Origenis GMBH, priority 2019, published 2022)

Key:
[1] = target: T1, wt human TYK2, catalytic site (Homo sapiens, UniProt P29597); experiment: HTRF KinEASE assay, TYK2; assay type: biochemical; conditions: 1 μM ATP; read-out: IC50, inhibitory activity toward TYK2
T1 construct: 2 nM wt human TYK2, catalytic site (SignalChem/CAN); purchased SignalChem/CAN
T1 sequence (P29597 897-1176 limits assumed): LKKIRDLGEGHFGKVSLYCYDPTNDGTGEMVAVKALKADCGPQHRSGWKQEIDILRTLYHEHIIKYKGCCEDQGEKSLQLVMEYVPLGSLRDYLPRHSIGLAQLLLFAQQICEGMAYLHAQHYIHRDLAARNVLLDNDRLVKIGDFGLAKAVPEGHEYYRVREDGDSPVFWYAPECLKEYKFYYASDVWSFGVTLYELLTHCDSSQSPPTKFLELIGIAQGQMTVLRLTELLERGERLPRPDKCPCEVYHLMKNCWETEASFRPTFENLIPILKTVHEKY
Procedure: Basic protocol for HTRF KinEASE assay (Cisbio/FRA) inhibitor studies involved two steps: Enzymatic step: Addition of 4 μl of test compound in corresponding DMSO dilutions, 4 μl of kinase/substrate mixture, 2 μl of ATP into 384 well small volume plates. Incubation for at least 30 minutes at room temperature.
Detection step: Addition of 5 μl antibody and 5 μl streptavidin-XL665, read plate after 60 minutes. Data analysis of emission ratios according to KinEASE assay protocol.
Kinase and assay components were adjusted to final concentrations according to the kit protocol. For TYK2: 2 nM wt human TYK2, catalytic site (SignalChem/CAN), 1 μM HTRF KinEASE-TK Substrate-biotin, 1 μM ATP in 1× Kinase Buffer

[2] = target: T2, wt human NUAK1, full length (Homo sapiens, UniProt O60285); experiment: TR-FRET LanthaScreen Eu Kinase Binding Assay, NUAK1; conditions: 5 nM Kinase Tracer 236; read-out: IC50, inhibitory activity toward NUAK1
T2 construct: 8 nM wt human NUAK1, full length (ThermoFisher/USA); purchased ThermoFisher/USA
T2 sequence (O60285 1-661): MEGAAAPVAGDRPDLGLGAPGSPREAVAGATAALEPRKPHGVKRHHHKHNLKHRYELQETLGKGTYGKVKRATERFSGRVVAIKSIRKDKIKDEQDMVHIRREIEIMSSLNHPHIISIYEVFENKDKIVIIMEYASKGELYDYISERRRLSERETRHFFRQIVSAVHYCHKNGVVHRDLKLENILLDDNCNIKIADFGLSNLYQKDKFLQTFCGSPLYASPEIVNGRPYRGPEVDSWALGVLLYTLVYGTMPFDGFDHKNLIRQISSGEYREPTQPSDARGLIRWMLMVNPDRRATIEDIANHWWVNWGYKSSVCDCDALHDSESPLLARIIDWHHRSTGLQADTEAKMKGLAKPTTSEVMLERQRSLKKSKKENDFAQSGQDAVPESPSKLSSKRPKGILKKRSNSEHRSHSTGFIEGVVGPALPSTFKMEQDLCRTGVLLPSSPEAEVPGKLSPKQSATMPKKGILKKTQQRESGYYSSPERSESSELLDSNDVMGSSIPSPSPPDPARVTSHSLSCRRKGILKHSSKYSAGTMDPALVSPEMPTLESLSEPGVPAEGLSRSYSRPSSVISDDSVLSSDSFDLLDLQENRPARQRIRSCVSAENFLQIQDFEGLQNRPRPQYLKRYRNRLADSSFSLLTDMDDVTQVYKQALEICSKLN
Procedure: The basic protocol for TR-FRET LanthaScreen Eu Kinase Binding Assay inhibitor studies were performed as follows. LanthaScreen Kinase Binding Assays (ThermoFisher/USA) to evaluate inhibitors were performed by addition of 5 μl of test compound in corresponding DMSO dilutions/5 μl of kinase/antibody mixture, 5 μl of tracer into 384 well small volume plates. After incubation for 1 hour at room temperature, plates were read. Data analysis of emission ratios was according to LanthaScreen Eu Kinase Binding Assay protocol.
Kinase and assay components were adjusted to final concentrations according to the kit protocol. For LRRK2: 5 nM wt human LRRK2, catalytic site, or G2019S human LRRK2, catalytic site (ThermoFisher/USA), 2 nM Eu-Anti-GST Antibody, 10 nM Kinase Tracer 236 in 1× Kinase Buffer A. For NUAK1: 8 nM wt human NUAK1, full length (ThermoFisher/USA), 2 nM Eu-Anti-His Antibody, 5 nM Kinase Tracer 236 in 1× Kinase Buffer A.

| SMILES | IC50 [1] | IC50 [2] |
| --- | --- | --- |
| COc1ccc2c(c1)-c1[nH]ncc1N=C(c1c(F)cccc1Cl)N2 [Compound 39, 5-(2-chloro-6-fluorophenyl)-9-methoxy-1,6-dihydrobenzo[d]pyrazolo[3,4-f][1,3]diazepine] | 0.1 to 1 µM | 0.1 to 1 µM |
| Fc1cccc(F)c1C1=Nc2cn[nH]c2-c2cc(OC(F)F)ccc2N1 [Compound 42, 9-(difluoromethoxy)-5-(2,6-difluorophenyl)-1,6-dihydrobenzo[d]pyrazolo[3,4-f][1,3]diazepine] | 0.1 to 1 µM | 0.01 to 0.1 µM |
| Fc1cccc(Cl)c1C1=Nc2cn[nH]c2-c2cc(OC(F)F)ccc2N1 [Compound 43, 5-(2-chloro-6-fluorophenyl)-9-(difluoromethoxy)-1,6-dihydrobenzo[d]pyrazolo[3,4-f][1,3]diazepine] | 0.1 to 1 µM | 0.01 to 0.1 µM |
| CCc1ccc2c(c1)-c1[nH]ncc1N=C(c1c(F)cccc1Cl)N2 [Compound 45, 5-(2-chloro-6-fluorophenyl)-9-ethyl-1,6-dihydrobenzo[d]pyrazolo[3,4-f][1,3]diazepine] | 0.1 to 1 µM | 0.1 to 1 µM |
| OCc1ccc2c(c1)-c1[nH]ncc1N=C(c1c(F)cccc1F)N2 [Compound 50, (5-(2,6-difluorophenyl)-1,6-dihydrobenzo[d]pyrazolo[3,4-f][1,3]diazepin-9-yl)methanol] | 0.1 to 1 µM | 0.01 to 0.1 µM |
| Cc1cnc2c(c1)-c1[nH]ncc1N=C(c1c(F)cccc1F)N2 [Compound 61, 5-(2,6-difluorophenyl)-9-methyl-1,6-dihydropyrazolo[4,3-d]pyrido[3,2-f][1,3]diazepine] | 0.1 to 1 µM | 0.01 to 0.1 µM |
| Fc1cccc(F)c1C1=Nc2cn[nH]c2-c2cc(Cl)cnc2N1 [Compound 64, 9-chloro-5-(2,6-difluorophenyl)-1,6-dihydropyrazolo[4,3-d]pyrido[3,2-f][1,3]diazepine] | 0.1 to 1 µM | 0.01 to 0.1 µM |
| O=C(c1ccc2c(c1)N=C(c1c(F)cccc1Cl)Nc1cn[nH]c1-2)N1CCOCC1 [Compound 78, (5-(2-chloro-6-fluorophenyl)-1,4-dihydrobenzo[d]pyrazolo[3,4-f][1,3]diazepin-8-yl)(morpholino)methanone] | 0.1 to 1 µM | 0.1 to 1 µM |
| FC(F)Oc1ccc2c(c1)-c1[nH]ncc1N=C(c1c(Cl)cccc1Cl)N2 [Compound 90, 5-(2,6-dichlorophenyl)-9-(difluoromethoxy)-1,6-dihydrobenzo[d]pyrazolo[3,4-f][1,3]diazepine] | 0.1 to 1 µM | 0.1 to 1 µM |
| NC(=O)c1ccc2c(c1)-c1[nH]ncc1NC(c1c(F)cccc1F)=N2 [Compound 93, 5-(2,6-difluorophenyl)-1,4-dihydrobenzo[d]pyrazolo[3,4-f][1,3]diazepine-9-carboxamide] | 0.1 to 1 µM | 0.01 to 0.1 µM |
| NC(=O)c1ccc2c(c1)-c1[nH]ncc1N=C(c1c(F)cccc1Cl)N2 [Compound 94, 5-(2-chloro-6-fluorophenyl)-1,6-dihydrobenzo[d]pyrazolo[3,4-f][1,3]diazepine-9-carboxamide] | 0.1 to 1 µM | 0.01 to 0.1 µM |
| Nc1ccc2c(c1)-c1[nH]ncc1N=C(c1c(F)cccc1F)N2 [Compound 103, 5-(2,6-difluorophenyl)-1,6-dihydrobenzo[d]pyrazolo[3,4-f][1,3]diazepin-9-amine] | 0.1 to 1 µM | 0.01 to 0.1 µM |
| O=C(NC1CCOCC1)c1ccc2c(n1)N=C(c1c(F)cccc1F)Nc1cn[nH]c1-2 [Compound 105, 5-(2,6-difluorophenyl)-N-(tetrahydro-2H-pyran-4-yl)-1,4-dihydropyrazolo[4,3-d]pyrido[3,2-f][1,3]diazepine-8-carboxamide] | 0.01 to 0.1 µM | 0.1 to 1 µM |
| COc1cccc(F)c1C1=Nc2cn[nH]c2-c2ccccc2N1 [Compound 114, 5-(2-fluoro-6-methoxyphenyl)-1,6-dihydrobenzo[d]pyrazolo[3,4-f][1,3]diazepine] | 0.1 to 1 µM | 0.1 to 1 µM |
| Cc1ccc2c(c1)-c1[nH]ncc1N=C(c1c(F)cccc1[N+](=O)[O-])N2 [Compound 125, 5-(2-fluoro-6-nitrophenyl)-9-methyl-1,6-dihydrobenzo[d]pyrazolo[3,4-f][1,3]diazepine] | 0.1 to 1 µM | 0.01 to 0.1 µM |

The next lines start with the values.

| IC50 [1] | IC50 [2] | SMILES |
| --- | --- | --- |
| 0.01 to 0.1 µM | 0.1 to 1 µM | COc1ccc2c(c1)N=C(c1c(F)cccc1F)Nc1cn[nH]c1-2 [Compound 49, 5-(2,6-difluorophenyl)-8-methoxy-1,4-dihydrobenzo[d]pyrazolo[3,4-f][1,3]diazepine] |
| 0.01 to 0.1 µM | 0.01 to 0.1 µM | Fc1cccc(F)c1C1=Nc2ccncc2-c2[nH]ncc2N1 [Compound 53, 5-(2,6-difluorophenyl)-1,4-dihydropyrazolo[4,3-d]pyrido[3,4-f][1,3]diazepine] |
| 0.01 to 0.1 µM | 0.01 to 0.1 µM | Fc1cccc(F)c1C1=Nc2cn[nH]c2-c2cn(-c3ccccc3)nc2N1 [Compound 68, 5-(2,6-difluorophenyl)-8-phenyl-6,8-dihydro-1H-dipyrazolo[3,4-d:3 ′,4′-f][1,3]diazepine] |
| 0.01 to 0.1 µM | 0.01 to 0.1 µM | Fc1cccc(F)c1C1=Nc2c(Br)n[nH]c2-c2ccccc2N1 [Compound 69, 3-bromo-5-(2,6-difluorophenyl)-1,6-dihydrobenzo[d]pyrazolo[3,4-f][1,3]diazepine] |
| 0.01 to 0.1 µM | < 0.01 µM | Fc1cccc(F)c1C1=Nc2cnccc2-c2[nH]ncc2N1 [Compound 71, 5-(2,6-difluorophenyl)-1,4-dihydropyrazolo[4,3-d]pyrido[4,3-f][1,3]diazepine] |
| 0.01 to 0.1 µM | 0.01 to 0.1 µM | Fc1cccc(F)c1C1=Nc2cn[nH]c2-c2cn[nH]c2N1 [Compound 72, 5-(2,6-difluorophenyl)-6,7-dihydro-1H-dipyrazolo[3,4-d:3′,4′-f][1,3]diazepine] |
| < 0.01 µM | 0.01 to 0.1 µM | O=C(O)c1ccc2c(c1)N=C(c1c(F)cccc1F)Nc1cn[nH]c1-2 [Compound 73, 5-(2,6-difluorophenyl)-1,4-dihydrobenzo[d]pyrazolo[3,4-f][1,3]diazepine-8-carboxylic acid] |
| 0.01 to 0.1 µM | 0.01 to 0.1 µM | Cc1n[nH]c2c1NC(c1c(F)cccc1F)=Nc1ccccc1-2 [Compound 76, 5-(2,6-difluorophenyl)-3-methyl-1,4-dihydrobenzo[d]pyrazolo[3,4-f][1,3]diazepine] |
| 0.01 to 0.1 µM | 0.01 to 0.1 µM | Fc1cccc(Cl)c1C1=Nc2c(Br)n[nH]c2-c2cccnc2N1 [Compound 88] |
| < 0.01 µM | 0.01 to 0.1 µM | O=C(NC1CCOCC1)c1ccc2c(c1)N=C(c1c(F)cccc1F)Nc1cn[nH]c1-2 [Compound 95, 5-(2,6-difluorophenyl)-N-(tetrahydro-2H-pyran-4-yl)-1,4-dihydrobenzo[d]pyrazolo[3,4-f][1,3]diazepine-8-carboxamide] |
| 0.01 to 0.1 µM | 0.01 to 0.1 µM | CC(C)(O)c1ccc2c(c1)NC(c1c(F)cccc1F)=Nc1cn[nH]c1-2 [Compound 98, 2-(5-(2,6-difluorophenyl)-1,6-dihydrobenzo[d]pyrazolo[3,4-f][1,3]diazepin-8-yl)propan-2-ol] |
| 0.01 to 0.1 µM | 0.01 to 0.1 µM | Fc1cccc(F)c1C1=Nc2cc(OC3CCOCC3)ccc2-c2[nH]ncc2N1 [Compound 99, 5-(2,6-difluorophenyl)-8-((tetrahydro-2H-pyran-4-yl)oxy)-1,4-dihydrobenzo[d]pyrazolo[3,4-f][1,3]diazepine] |
